Columns and labels:
E. coli [1] = experiment: Inhibition of E. coli by supernatant fractions of L. reuteri grown on various substrates (Table 2); type: cell-based
Experimental: (§1) Conditions under which reuterin is produced have been determined. Reuterin is not produced under aerobic conditions (atmospheric oxygen concentration) but under reduced oxygen tension. It is produced when L. reuteri is cultured anaerobically (or semi-anaerobically in still culture) in the MIC assay medium described above containing 20-500 mM glycerol or glyceraldehyde in place of glucose as the major carbon and energy source. […] Twenty other substances, including hexoses, hexitols, pentoses, pentitols, disaccharides and a variety of phosphorylated and non-phosphorylated C3-substances, were tested for their ability to support reuterin production. […] The medium, containing a substrate at 20 mM (C6 and C5 substrates) or 40 mM (C3 substrates) concentrations, was inoculated with 5 x 10^6 colony-forming units (CFU) per ml E. coli with and without L. reuteri. Only glycerol and glyceraldehyde yielded reuterin. Also, réuterin production from glycerol is inhibited when glucose or another growth substrate is included in the production medium. The results shown in Table 2 indicate the percent inhibition in viable count of a 6.7 x 10^7 CFU per ml E. coli inoculum by supernatant fractions of L. reuteri grown on various indicated substrates at 40 mM concentrations.

E. coli [2] = experiment: Co-culture of E. coli with and without L. reuteri 1063 on various substrates (Table 1); type: cell-based; set-up: % Inhibition: concentration or dose not given beside the values; conditions: for E. coli (CFU/ml) after 6 hours: substrate 20 mM (C6, C5) or 40 mM (C3), inoculum 5 x 10^6 CFU per ml E. coli
Experimental: as §1

[3] = Antimicrobial activity of pure commercial preparations; type: cell-based; conditions: concentrations as high as 0.125M
From the text: Reuterin Is a Product of Glycerol Fermentation. Reuterin is a new product associated with the same type of heterolactic fermentation of glycerol that occurs in other Lactobacillus species. Reuterin can be isolated and identified as a product of glycerol fermentation by L. reuteri using HPLC.

spoilage pseudomonads = experiment: Fish fillet storage: spoilage bacteria count (Table 8); conditions: fish fillets dipped in treatment solution, 8°C for 4 days
Experimental: Lactobacillus reuteri plus glycerol constitutes a novel effective food preservation process. Evidence for this was obtained using storage of fish as a model system. This study was conducted as follows: Fish fillets (Herring, Clupea harengas) were dipped in the following treatment solution: • control: no treatment • glycerol: 250 mM glycerol solution • strain 1068: 250 mM glycerol solution containing 4x10^9 CFU per ml L. reuteri 1068 (a non-reuterin producing strain) • strain 1063: 250 mM glycerol solution containing 4x10^9 CFU per ml L. reuteri 1063 The fillets (2 parallel samples each) were kept in large Petri dishes at 8°C for 4 days in a refrigerator. The ammonia content and CFU of relevant bacteria (i.e., spoilage pseudomonads and added lactobacilli) were then analyzed to evaluate the shelf-life of the food product. […] L. reuteri 1068 did so to some extent but not enough to prevent spoilage which is generally indicated by a log 8.4 pseudomonad count. • (iii) the retarding effect of L. reuteri and glycerol on spoilage bacteria has a strong reducing effect on ammonia liberation. • (iv) a food preservative effect of L. reuteri plus glycerol is indicated for all kinds of food spoilage.

L. reuteri = experiment: Sensitivity of L. reuteri itself to reuterin; type: cell-based
Experimental: (§2) Antimicrobial Activity. Reuterin is a broad-spectrum antimicrobial agent. Reuterin functions as a bacteriocide. […] The indicated concentrations (CFU per ml) of E. coli (solid lines) and L. reuteri 1063 (dashed lines) were inoculated (zero time) into the glycerol casein hydrolysate medium described above (o), the same medium minus citrate (•) and the same medium minus glycerol (X). The co-cultures were incubated semi-anaerobically (still cultures) at 37 degrees C with samples removed at the indicated intervals to determine the numbers (CFU per ml) of E. coli and L. reuteri present. […] All Gram-negative bacterial genera tested thus far (Escherichia, Shigella, Salmonella, Proteus and Pseudomonas) and all Gram positive genera tested (Staphylococcus, Streptococcus, Clostridium, Bacillus, Leuconostoc and Lactobacillus) are sensitive to reuterin. Somewhat higher concentrations of reuterin are required, however, to kill representatives of the latter three genera. A lower eucaryote, the yeast Saccharomyces cerevisiae, is also killed by reuterin. Also shown in this table is the ability of various species tested to stimulate reuterin production by the heterologous procedure.

E. coli K12 [4] = experiment: Minimum Inhibitory Concentration (MIC) procedure; type: cell-based; conditions: chemically synthesized as described by Hall, compared with biologically synthesized reuterin
Experimental: Reuterin. When Lactobacillus reuteri cells capable of producing reuterin are placed under certain favorable conditions, reuterin is produced. A number of assays have been developed to detect and quantitate reuterin. A standard Minimum Inhibitory Concentration (MIC) procedure was adopted to detect reuterin and to elucidate factors affecting its production. E. coli K12 is used as the susceptible test microorganism and the assay is carried-out as follows. Overnight cultures of E. coli are harvested, washed twice with sterile 0.05 sodium phosphate buffer (pH 7.5), suspended in this buffer and adjusted to 60 percent transmission (A 420 nm) using a Spectronic 70 instrument. This suspension is diluted 1:100 and 0.1 ml aliquots are used to inoculate 1.0 ml of the MIC assay medium which contains (g/L): vitamin-free casein hydrolysate, 3; ammonium citrate, 1.9; citric acid, 0.63; KH2PO4, 12.6; MgSO4 (hepta-hydrate), 0.2; pH adjusted to 7.0 and 20 mM glucose added after sterilization. […] Relative reuterin concentrations (units reuterin) are then calculated as the reciprocal of the sample dilution preceding the dilution allowing visible growth of the indicator cells. Another assay relating MIC values to reuterin peak heights as determined by HPLC analyses (described below) has also been developed.

Lambda phage = experiment: Reuterin added to phage-infected bacterial cultures: virus PFUs (Figure 13); type: cell-based; conditions: 10 units of reuterin; four hours; compared to the reuterin-free control culture
Experimental: (§3) Antiviral Activity. Reuterin is also effective in preventing virus replication. […] It appears from preliminary results with ^14C-labeled glycerol that 4 ug of reuterin in 0.5 ml solution is about the equivalent of 1 unit of reuterin. After four hours, the number of colony-forming units (CFUs) of the host cell and the number of plaque-forming units (PFUs) of the viruses were assayed using standard microbiological techniques. With no reuterin added, the number of microbial cells had increased about 100-fold in the four-hour period. With E. coli, addition of 10 units of reuterin caused an approximate 100-fold decrease in the number of cells and more than a 1000-fold decrease in the number of PFUs of the lambda phage as compared to the reuterin-free control culture after incubation for four hours.

Saccharomyces cerevisiae = experiment: Sensitivity to reuterin (Table 6); type: cell-based
Experimental: as §2

Pediococcus cerevisiae = experiment: Sensitivity to reuterin (Table 6); type: cell-based
Experimental: as §2

Clostridium sporogenes = experiment: Sensitivity to reuterin (Table 6); type: cell-based
Experimental: as §2

[5] = system: Leuconostoc mesenteroides; experiment: Sensitivity to reuterin (Table 6); type: cell-based
Experimental: as §2

Bacillus megaterium = experiment: Sensitivity to reuterin (Table 6); type: cell-based
Experimental: as §2

ground beef microflora = experiment: Food preservation: ground beef microflora (Figure 14); conditions: 50 and 100 units per g; stored at 4 degrees C; through the 6-day test period
Experimental: Reuterin is an effective food preservative. Ground beef purchased from a local supermarket was divided into 4 portions. One portion was untreated, the others were treated with 10, 50 and 100 units of reuterin per gram of the meat. All samples were stored at 4 degrees C with samples taken at indicated days for bacteriological analysis.
Beef samples were removed and diluted 1:10 (1 g beef: 9 ml sterile H2O). Subsequent decimal dilutions were made as needed and samples were plated onto Difco Nutrient Agar. These samples were incubated at 27°C for 24 hours and counted as colony forming units per gram ground beef (CFU/g). […] With the higher levels of reuterin (50 and 100 units per g) the indigenous population of bacteria was reduced and remained greater than 4 log units lower than the control sample through the 6-day test period.

E. coli K12 [6] = experiment: Food preservation: E. coli-inoculated ground beef (Figure 15); conditions: 75 units (U) of reuterin per gram of beef; 4°C; 9-day incubation period
Experimental: Ground beef purchased from a local supermarket was thoroughly inoculated and mixed with approximately 10^5CFU/ml of E. coli K12 cells. After mixing, the material was divided into 2 portions. One portion was an untreated control (no reuterin), the other portion received 75 units (U) of reuterin per gram of beef. Samples were stored at 4°C with portions removed at indicated times for bacteriological analysis. In this experiment the determination of viable cells (CFU/g beef) was conducted as described for Figure 14 except that Difco McConkey's Agar (relatively specific for coliform-like bacteria) was used.

[7] = Characterizations of reuterin in crude preparations; type: physicochemical
phage 8014-B2 = experiment: Reuterin added to phage-infected bacterial cultures: virus PFUs versus host CFUs (Figure 13); type: cell-based, Lactobacillus plantarum; conditions: reuterin amounts at or greater than 25 units; four hours
Experimental: as §3

Escherichia coli = experiment: Reuterin added to phage-infected bacterial cultures: host CFUs (Figure 13); type: cell-based; conditions: 10 units of reuterin; four hours; compared to the reuterin-free control culture
Experimental: as §3

E. coli [8] = experiment: Bacteriocidal activity in E. coli / L. reuteri 1063 co-culture in glycerol medium (Figure 5); type: cell-based; conditions: glycerol present; co-culture with L. reuteri 1063, still culture, 37 degrees C; few hours after first 3-4 hours
Experimental: as §2

Tryoanosoma cruzi = experiment: In vitro growth of the protozoan parasite; type: cell-based; conditions: final concentration of approximately 20 MIC units ml^-1

OCC(O)CO [Glycerol]
% Inhibition (E. coli [1]; percent inhibition in viable count of 6.7 x 10^7 CFU per ml E. coli inoculum by supernatant fraction, substrate 40 mM): 99.9%
Growth of E. coli presence of centrifuged culture medium CFU/ml after 6 hours (E. coli [1]; supernatant fraction of L. reuteri grown on the substrate at 40 mM, inoculum 6.7 x 10^7 CFU per ml E. coli): 4.5x10^5 CFU/ml
E. coli (CFU/ml) after 6 hours (E. coli [2]; Addition of L. reuteri 1063: +): 5.5x10^4 CFU/ml
E. coli (CFU/ml) after 6 hours (E. coli [2]; Addition of L. reuteri 1063: -): 1.2x10^7 CFU/ml
% Inhibition (E. coli [2]; E. coli with versus without L. reuteri 1063 on the substrate, 6 hours): 99%
antimicrobial activity [3]: essentially devoid of antimicrobial activity
Log CFU bacteria per g Pseudomonads (kings agar) (spoilage pseudomonads): 9.4 Log CFU bacteria per g

OCCC1OCCC(O)O1 (stereo not drawn) [reuterin, 4-hydroxy-2-2'-hydroxyethyl-1:3-dioxan]
concentrations at which L. reuteri itself is sensitive to reuterin (L. reuteri): ≥ 32 MIC units
MIC value (E. coli K12 [4]): idential MIC value as the biologically synthesized reuterin
decrease in the number of PFUs of the lambda phage (Lambda phage): > 1000 fold
Sensitivity to reuterin (Saccharomyces cerevisiae): S
Sensitivity to reuterin (Pediococcus cerevisiae): S
Sensitivity to reuterin (Clostridium sporogenes): S
Sensitivity to reuterin [5]: S
Sensitivity to reuterin (Bacillus megaterium): S
indigenous population of bacteria lower than the control sample (ground beef microflora): greater than 4 log units
viable cells (CFU/g beef) on McConkey's Agar (E. coli K12 [6]): reduced the initial population of bacteria and kept these numbers low
stability to heat ([7]; 100 degrees C for 10 minutes, particularly at pH values of 9.0 or higher): labile to heat
resistance to nucleases and proteases ([7]; crude preparations): resistant to nucleases and proteases
solubility in water ([7]; crude preparations): highly soluble in water
Lactobacillus CFU and PFU decreases due to reuterin (phage 8014-B2): even greater declines in the PFUs than in the CFUs
decrease in the number of cells (Escherichia coli): about 100 fold
log decrease in viable E. coli cells (E. coli [8]): 7-8 log
in vitro growth of the protozoan parasite (Tryoanosoma cruzi): inhibits in vitro growth

— patent EP0698347B1, “Food composition containing reuterin” (BIOGAIA BIOLOGICS AB, priority 1987, dated 1988)
